# Reference: patent US6967196B1, “Sulfonamide compounds and uses thereof” (Bristol-Myers Squibb Company, priority 1999, dated 2005)
# Where a name gives a salt, the structure may show the parent alone.
# Tested on: amyloid β production in transfected H4 (human neuroglioma) cells stably expressing APP constructs
# Experiment: In vitro cell-based assay of inhibitors of amyloid β production (ELISA)
# Settings: Homo sapiens, 16 h, Table B; transfected H4 cells stably expressing APP; approximately 16 hours incubation; amyloid β in medium by ELISA; read-out: ACTIVITY (inhibitory concentration IC50, inhibition of amyloid β production)
# How it was run: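 Transfected H4 cells stably expressing wild-type or variant APP were exposed to compounds (initial screen 10-100 μM) for about 16 h. Secreted Aβ in the medium was quantified by sandwich ELISA (C-terminal-specific monoclonal capture, N-terminal-specific polyclonal detection) against an Aβ standard curve; dose-response runs followed for actives.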
row,Compound,IC50
1,"CCN(CC)C(=O)CCCc1cc(F)ccc1[C@@H](C)N(c1cc(F)ccc1F)S(=O)(=O)c1ccc(Cl)cc1 [Example 223, 4-[2-((1R)-1-{[(4-chlorophenyl)sulfonyl]-2,5-difluoroanilino}ethyl)-5-fluorophenyl]-N,N-diethylbutanamide]",25 to 50 nM

# Same assay, conditions: Homo sapiens, 16 h, transfected H4 cells expressing APP, approximately 16 hours incubation, amyloid β in medium by ELISA; read-out: ACTIVITY (IC50, inhibition of amyloid β production)
row,Compound,IC50
1,CCCCN(CCCC)CCCNC(=O)[C@@H](C)N(c1cc(Cl)ccc1F)S(=O)(=O)c1ccc(Cl)cc1 [Example 1333],> 500 nM
2,C[C@H](C(=O)NCCc1ccc(Cl)cc1Cl)N(c1cc(Cl)ccc1F)S(=O)(=O)c1ccc(Cl)cc1 [Example 1305],> 500 nM
3,C[C@H](CCCOC(=O)N(C)CCO)N(c1cc(Cl)ccc1CO)S(=O)(=O)c1ccc(Cl)cc1 [Example 1297],≤ 25 nM
4,C[C@H](CCCOC(=O)NCCCn1ccnc1)N(c1cc(Cl)ccc1CO)S(=O)(=O)c1ccc(Cl)cc1 [Example 1290],> 500 nM
5,C[C@H](C(=O)NCC1CC1)C(c1cc(Cl)ccc1F)S(=O)(=O)c1ccc(Cl)cc1 (some centres unmarked) [Example 1303],100 to 500 nM

# Same assay, conditions: Homo sapiens, 16 h, transfected H4 cells stably expressing APP constructs; approximately 16 hours incubation; amyloid β in medium by ELISA; read-out: ACTIVITY (IC50, inhibition of amyloid β production)
row,Compound,IC50
1,"C[C@H](CCCS(=O)(=O)N1CCSCC1)N(c1cc(Cl)ccc1Cl)S(=O)(=O)c1ccc(Cl)cc1 [Example 1211, 4-chloro-N-[2,5-dichlorophenyl]-N-[4-[(4-thiomorpholinyl)sulfonyl]-1(R)-methylbutyl]benzenesulfonamide]",≤ 25 nM

# Same assay, conditions: Homo sapiens, 16 h, transfected H4 cells stably expressing APP; approx. 16 h incubation; amyloid β in medium by ELISA; read-out: ACTIVITY (IC50, inhibition of amyloid β production)
row,Compound,IC50
1,"O=S(=O)(c1ccc(Cl)cc1)N(Cc1ccccc1Cn1ncnn1)c1cc(F)ccc1F [Example 751, 4-chloro-N-(2,5-difluorophenyl)-N-[2-(2H-tetraazol-2-ylmethyl)benzyl]benzenesulfonamide]",100 to 500 nM

# Same assay, conditions: Homo sapiens, 16 h, transfected H4 cells stably expressing APP; approximately 16 hours incubation; amyloid β in medium by ELISA; Table B; read-out: ACTIVITY (IC50, inhibition of amyloid β production)
row,Compound,IC50
1,"C[C@H](c1ccc(F)cc1CCOC(=O)NCc1ccco1)N(c1cc(F)ccc1F)S(=O)(=O)c1ccc(Cl)cc1 [Example 435, 2-[2-((1R)-1-{[(4-chlorophenyl)sulfonyl]-2,5-difluoroanilino}ethyl)-5-fluorophenyl]ethyl 2 furylmethylcarbamate]",50 to 100 nM
2,"C[C@H](c1ccccc1CCC(=O)Nc1ccccc1)N(c1cc(F)ccc1F)S(=O)(=O)c1ccc(Cl)cc1 [Example 403, 3-[2-((1R)-1-{[(4-chlorophenyl)sulfonyl]-2,5-difluoroanilino}ethyl)phenyl]-N-phenylpropanamide]",50 to 100 nM

# Same assay, conditions: Homo sapiens, 16 h, transfected H4 cells stably expressing APP; approximately 16 hours incubation; amyloid β in medium by ELISA; read-out: ACTIVITY (IC50, inhibition of amyloid β production)
row,Compound,IC50
1,"O=[N+]([O-])c1ccc(SCCCOc2ccccc2CN(c2cc(F)ccc2F)S(=O)(=O)c2ccc(Cl)cc2)cc1 [Example 997, 4-chloro-N-(2,5-difluorophenyl)-N-(2-{3-[(4-nitrophenyl)sulfanyl]propoxy}benzyl)benzenesulfonamide]",> 500 nM
2,"CC(COc1ccccc1CN(c1ccccc1)S(=O)(=O)c1ccc(Cl)cc1)N1CCC1 (centres unmarked) [Example 918, N-{2-[2-(1-azetidinyl)propoxy]benzyl}-4-chloro-N-phenylbenzenesulfonamide hydrochloride]",> 500 nM
3,"O=S(=O)(c1ccccc1)N(Cc1ccccc1CCCCN1CCCCC1)c1ccccc1 [Example 1005, N-phenyl-N-{2-[4-(1-piperidinyl)butyl]benzyl}benzenesulfonamide]",> 500 nM
4,"O=C1c2ccccc2C(=O)N1CCCOc1ccccc1CN(c1cc(F)ccc1F)S(=O)(=O)c1ccc(Cl)cc1 [Example 916, 4-chloro-N-(2,5-difluorophenyl)-N-{2-[3-(1,3-dioxo-1,3-dihydro-2H-isoindol-2-yl)propoxy]benzyl}benzenesulfonamide]",> 500 nM
5,"CC(C)N(C(=O)N(C)CCOc1ccccc1C(C)N(c1cc(F)ccc1F)S(=O)(=O)c1ccc(Cl)cc1)C(C)C (centres unmarked) [Example 888, 4-chloro-N-(2,5-difluorophenyl)-N-[1-(2-{2-[[(diisopropylamino)carbonyl](methyl)amino]ethoxy}phenyl)ethyl]benzenesulfonamide]",> 500 nM
6,"C[C@H](c1ccc(F)cc1CCCO)N(c1cc(F)ccc1F)S(=O)(=O)c1ccc(Cl)cc1 [Example 1063, 4-chloro-N-(2,5-difluorophenyl)-N-((1R)-1-[4-fluoro-2-(3-hydroxypropyl)phenyl]ethyl}benzenesulfonamide]",> 500 nM
7,"O=C1CCN(CCCOc2ccccc2CN(c2ccccc2)S(=O)(=O)c2ccc(Cl)cc2)CC1 [Example 968, 4-chloro-N-{2-[3-(4-oxo-1-piperidinyl)propoxy]benzyl}-N-phenylbenzenesulfonamide hydrochloride]",> 500 nM
8,"O=S(=O)(c1ccc(Cl)cc1)N(Cc1ccccc1OCCCN1CCCCC1)c1cc(Cl)cc(Cl)c1 [Example 816, 4-chloro-N-(3,5-dichlorophenyl)-N-{2-[3-(1-piperidinyl)propoxy]benzyl}benzenesulfonamide hydrochloride]",100 to 500 nM
9,"O=S(=O)(c1ccc(Cl)cc1)N(Cc1ccccc1OCCCN1CCCCC1)C1CCc2ccccc21 (centres unmarked) [Example 1012, 4-chloro-N-(2,3-dihydro-1H-inden-1-yl)-N-{2-[3-(1-piperidinyl)propoxy]benzyl}benzenesulfonamide hydrochloride]",> 500 nM

# Same assay, conditions: read-out: ACTIVITY (inhibitory concentration IC50, inhibition of amyloid β production)
row,Compound,IC50
1,"CSc1ccccc1N(Cc1ccccc1OCCCN1CCCCC1)S(=O)(=O)c1ccc(Cl)cc1 [Example 238, 4-Chloro-N-[2-(methylsulfanyl)phenyl]-N-{2-[3-(1-piperidinyl)propoxy]benzyl}benzenesulfonamide Hydrochloride]",25 to 50 nM

# Same assay, conditions: transfected H4 cells stably expressing APP constructs; approximately 16 hours incubation; amyloid β in medium by ELISA; read-out: ACTIVITY (IC50, inhibition of amyloid β production)
row,Compound,IC50
1,"CCSCCC[C@@H](C)N(c1cc(Cl)ccc1Cl)S(=O)(=O)c1ccc(Cl)cc1 [Example 1183, 4-chloro-N-[2,5-dichlorophenyl]-N-[1(R)-methyl-(4-ethylthio)butyl]benzenesulfonamide]",≤ 25 nM
2,CC(C)[S+]([O-])CCC[C@@H](C)N(c1cc(Cl)ccc1Cl)S(=O)(=O)c1ccc(Cl)cc1 (some centres unmarked) [Example 1169],≤ 25 nM

# Same assay, conditions: transfected H4 cells stably expressing APP; approx. 16 h incubation; amyloid β in medium by ELISA; read-out: ACTIVITY (IC50, inhibition of amyloid β production)
row,Compound,IC50
1,"2-((1R)-1-{[(4-chlorophenyl)sulfonyl]-2,5-difluoroanilino}ethyl)benzyl 2-methoxyethylcarbamate [Example 669]",100 to 500 nM
2,"N-{4-[2-(1-{[(4-chlorophenyl)sulfonyl]-2,5-difluoroanilino}ethyl)phenoxy]butyl}-N-ethylacrylamide [Example 739]",100 to 500 nM
3,"N-{3-[2-(1-{[(4-chlorophenyl)sulfonyl]-2,5-difluoroanilino}ethyl)phenoxy]propyl}-N-methyl-4-(trifluoromethyl)benzamide [Example 703]",100 to 500 nM

# Same assay, conditions: transfected H4 cells stably expressing APP; approximately 16 hours incubation; amyloid β in medium by ELISA; Table B; read-out: ACTIVITY (IC50, inhibition of amyloid β production)
row,Compound,IC50
1,"C[C@H](c1ccccc1OCCCN(C)C(=O)c1cccnc1)N(c1cc(F)ccc1F)S(=O)(=O)c1ccc(Cl)cc1 [Example 363, N-{3-[2-((1R)-1-{[(4-chlorophenyl)sulfonyl]-2,5-difluoroanilino}ethyl)phenoxy]propyl}-N-methylnicotinamide Hydrochloride]",50 to 100 nM
2,"CC(c1ccccc1OCCCn1ccnc1)N(c1cc(F)ccc1F)S(=O)(=O)c1ccc(Cl)cc1 (centres unmarked) [Example 321, 4-Chloro-N-(2,5-difluorophenyl)-N-1-{2-[3-(1H-imidazol-1-yl)propoxy]phenyl}ethyl)benzenesulfonamide Hydrochloride]",50 to 100 nM

# Same assay, conditions: transfected H4 cells stably expressing APP; approximately 16 hours incubation; amyloid β in medium by ELISA; read-out: ACTIVITY (IC50, inhibition of amyloid β production)
row,Compound,IC50
1,"N-{3-[2-(1-{[(4-chlorophenyl)sulfonyl]-2,5-difluoroanilino}ethyl)phenoxy]propyl}-N-methyl-2-naphthamide [Example 858]",100 to 500 nM
2,"C[C@H](c1ccc(F)cc1CCCC(=O)O)N(c1cc(F)ccc1F)S(=O)(=O)c1ccc(Cl)cc1 [Example 1067, 4-[2-((1R)-1-{[(4-chlorophenyl)sulfonyl]-2,5-difluoroanilino}ethyl)-5-fluorophenyl]butanoic acid]",> 500 nM
3,"N-{4-[2-(1-{[(4-chlorophenyl)sulfonyl]-2,5-difluoroanilino}ethyl)phenoxy]butyl}-N-methyl-1-adamantanecarboxamide [Example 846]",100 to 500 nM
4,(2E)-3-[2-({[(4-chlorophenyl)sulfonyl]anilino}methyl)phenyl]-2-propenoic acid [Example 1035],> 500 nM
5,"C[C@H](c1ccc(F)cc1CCCC(=O)O)N(c1cc(F)ccc1F)S(=O)(=O)c1ccc(Cl)cc1 [Example 1069, 4-[2-((1R)-1-{[(4-chlorophenyl)sulfonyl]-2,5-difluoroanilino}ethyl)-5-fluorophenyl]butanoic acid]",> 500 nM
6,"3-bromo-N-{3-[2-(1-{[(4-chlorophenyl)sulfonyl]-2,5-difluoroanilino}ethyl)phenoxy]propyl}-N-methylbenzamide [Example 820]",100 to 500 nM
7,"(2R)-2-{[(4-chlorophenyl)sulfonyl]-2,5-difluoroanilino}propyl isonicotinate [Example 1057]",> 500 nM
8,"CC(C)CC(C)C(=O)N(C)CCOc1ccccc1C(C)N(c1cc(F)ccc1F)S(=O)(=O)c1ccc(Cl)cc1 (centres unmarked) [Example 930, N-{2-[2-(1-{[(4-chlorophenyl)sulfonyl]-2,5-difluoroanilino}ethyl)phenoxy]ethyl}-N,2,4-trimethylpentamide]",> 500 nM
